Test systems include EKVX NSCLC; UO-31 renal; NCI/ADR-RES ovarian; HOP-62 NSCLC; U251 CNS; DU-145 prostate; UACC-257 melanoma; MDA-N; HOP-92 NSCLC; NCI-H522 lung; SR leukemia.
Common to all, as to test: DTP human tumour cell line panel, 48 h

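Protocol summary: plate cells (96-well), add compound at 5 concentrations, incubate 48 h, interpolate endpoints linearly. GI50: concentration for 50% inhibition of growth. The concentration for full growth arrest is given as TGI.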

The values below come from PubChem BioAssay (NCI).

In general, TGI refers to the concentration at which net growth stops. Lower therefore signals greater sensitivity of the cells. Broadly, the GI50 is the concentration at which growth is held to half of that of the control.

In the case of `C=CCN1CCC(OC(=O)C(O)(/C=C\CC)C2CCCC2)CC1` (stereo unspecified), the TGI in the assay on EKVX NSCLC, in the assay with UO-31 renal, in the assay with NCI/ADR-RES ovarian, in the assay with HOP-62 NSCLC, with U251 CNS and in the assay with DU-145 prostate was > 100 µM throughout. Also, the TGI with UACC-257 melanoma, in the assay with MDA-N, with HOP-92 NSCLC and with NCI-H522 lung was > 100 µM throughout.

On to `N#CC12COC3(CCCCC3C1(C#N)C#N)OC2=N` (stereo unspecified), for which the TGI is 48.8 µM with EKVX NSCLC; 30.6 µM in the assay on UO-31 renal; > 100 µM with NCI/ADR-RES ovarian; 45.5 µM with U251 CNS; 28.7 µM in the assay on DU-145 prostate; 34.1 µM in the assay on UACC-257 melanoma. For the same compound, the TGI in the assay on MDA-N came to 25.5 µM; in the assay with HOP-92 NSCLC, 18.5 µM.

In the case of `O=C1CCc2c3c(c4c([nH]c5ccccc54)c2CC1)C(=O)NC3=O`, the total growth inhibition concentration (TGI) is > 100 µM in the assay on EKVX NSCLC; 14.7 µM in the assay with UO-31 renal; > 100 µM with NCI/ADR-RES ovarian; > 100 µM in the assay on HOP-62 NSCLC; > 100 µM in the assay on U251 CNS; 42.9 µM in the assay on DU-145 prostate. For the same compound, the concentration for total growth inhibition (TGI) came out at 19.5 µM in the assay with UACC-257 melanoma, 82 µM in the assay with HOP-92 NSCLC and 9.3 µM with NCI-H522 lung.

`C=CCn1c2ccccc2c2c(C)c3cnccc3c(C)c21`: the TGI came out at 66.1 µM in the assay on EKVX NSCLC; 32.8 µM with UO-31 renal; 34.4 µM in the assay with NCI/ADR-RES ovarian; 36.3 µM with HOP-62 NSCLC; 81.3 µM in the assay with U251 CNS; 41.9 µM in the assay on UACC-257 melanoma. For the same compound, the TGI in the assay on HOP-92 NSCLC is 29.8 µM; with NCI-H522 lung it was 37.2 µM.

As to `Clc1cc2nc(C3CCCO3)[nH]c2cc1Cl` (stereo unspecified), the TGI in the assay with EKVX NSCLC was > 100 µM; with UO-31 renal it was 53.9 µM; in the assay with NCI/ADR-RES ovarian, > 100 µM; with HOP-62 NSCLC, > 100 µM; with U251 CNS, > 100 µM; in the assay on UACC-257 melanoma it was > 100 µM. For the same compound, the TGI in the assay with MDA-N is 58 µM; in the assay on HOP-92 NSCLC it was > 100 µM; in the assay on NCI-H522 lung, 66 µM; in the assay on SR leukemia, > 100 µM.

Turning to `Cc1c2c(c(C)c3c[n+](C)ccc13)Oc1ccccc1O2`, the TGI in the assay with EKVX NSCLC was > 100 µM; in the assay with UO-31 renal it was > 100 µM; in the assay with NCI/ADR-RES ovarian it was > 100 µM; in the assay on HOP-62 NSCLC, 33.4 µM; with U251 CNS, 22.3 µM; in the assay with DU-145 prostate, > 100 µM. Moreover, the TGI is 25.9 µM with UACC-257 melanoma, 53.5 µM in the assay on MDA-N, 99.8 µM with HOP-92 NSCLC and 17.1 µM in the assay on NCI-H522 lung.

Regarding `O=C(N=Nc1ccc([N+](=O)[O-])cc1)NNc1ccc([N+](=O)[O-])cc1`, the TGI in the assay on UO-31 renal worked out at 32.6 µM; in the assay on HOP-62 NSCLC it was 34 µM; with U251 CNS it was 59.7 µM; with DU-145 prostate it was 18.4 µM; in the assay on UACC-257 melanoma, 67.5 µM; in the assay with MDA-N, 32.3 µM. In addition, the TGI in the assay on NCI-H522 lung amounted to 33.1 µM; in the assay on SR leukemia, 72.6 µM.

On to `Nn1c(CNc2ccc(-c3nnc(Nc4ccc(Cl)cc4)n3N)cc2)nnc1Nc1ccc(Cl)cc1`, for which the TGI in the assay on EKVX NSCLC was > 100 µM; in the assay on UO-31 renal, > 100 µM; in the assay on NCI/ADR-RES ovarian, > 100 µM; in the assay with HOP-62 NSCLC it was 93 µM; in the assay with U251 CNS, > 100 µM; in the assay on DU-145 prostate, > 100 µM. For the same compound, the TGI in the assay on UACC-257 melanoma, with MDA-N, in the assay on HOP-92 NSCLC and in the assay with NCI-H522 lung was > 100 µM each time.

Take `C=CCCCCOC1C=CC(OC(C)=O)C(COC(C)=O)O1` (stereo unspecified): the TGI in the assay with EKVX NSCLC, in the assay on UO-31 renal, with NCI/ADR-RES ovarian, in the assay with HOP-62 NSCLC, with U251 CNS and in the assay with DU-145 prostate was > 100 µM in each case. Besides, the TGI in the assay on UACC-257 melanoma, in the assay on MDA-N, with HOP-92 NSCLC and with NCI-H522 lung was > 100 µM in each case.

For the compound `NNC(N)=Nc1cccc2ccccc12`, the TGI in the assay on EKVX NSCLC, in the assay on UO-31 renal, in the assay with NCI/ADR-RES ovarian, in the assay on HOP-62 NSCLC, in the assay on U251 CNS and with DU-145 prostate was > 100 µM each time. For the same compound, the concentration for total growth inhibition (TGI) is > 100 µM in the assay with UACC-257 melanoma, 92.4 µM in the assay with HOP-92 NSCLC and > 100 µM in the assay with SR leukemia.

In the case of `CCCCCCc1nn2c(-c3ccc(C)cc3)nnc2s1`, the TGI in the assay on EKVX NSCLC, with UO-31 renal, in the assay with NCI/ADR-RES ovarian, in the assay on HOP-62 NSCLC, in the assay with U251 CNS and in the assay on DU-145 prostate was > 100 µM each time. The TGI in the assay with UACC-257 melanoma, in the assay with MDA-N and in the assay on NCI-H522 lung was > 100 µM in each case.

Take `COc1cc(N=C(N)N=C(N)N)c2ncccc2c1`: the TGI in the assay on EKVX NSCLC, in the assay on UO-31 renal, in the assay with NCI/ADR-RES ovarian, with HOP-62 NSCLC, in the assay with U251 CNS and in the assay on DU-145 prostate was > 100 µM in each case. Moreover, the TGI in the assay on UACC-257 melanoma, in the assay on MDA-N, in the assay on HOP-92 NSCLC and in the assay with NCI-H522 lung was > 100 µM throughout.

`O=C(Nc1ccc(Cl)cc1)c1cc(S(=O)(=O)Nc2n[nH]c(=O)[nH]2)c(SSc2cc(Cl)c(C(=O)Nc3ccc(Cl)cc3)cc2S(=O)(=O)Nc2n[nH]c(=O)[nH]2)cc1Cl`: the TGI with EKVX NSCLC, in the assay with UO-31 renal, in the assay with NCI/ADR-RES ovarian, with HOP-62 NSCLC, in the assay with U251 CNS and in the assay with UACC-257 melanoma was > 100 µM throughout. The concentration for total growth inhibition (TGI) in the assay on MDA-N, in the assay on HOP-92 NSCLC, in the assay on NCI-H522 lung and with SR leukemia was > 100 µM in each case.

As for `CC1=C(C)C(=O)OC(C(C)(O)C2(O)CCC3(O)C4CC(Cl)C5(O)C(O)C=CC(=O)C5(C)C4CCC32C)C1` (stereo unspecified), the TGI in the assay on EKVX NSCLC, in the assay with UO-31 renal, in the assay on HOP-62 NSCLC, in the assay on U251 CNS, in the assay on DU-145 prostate and in the assay on UACC-257 melanoma was > 100 µM throughout. Also, the TGI is > 100 µM in the assay with MDA-N, > 100 µM in the assay with HOP-92 NSCLC, > 100 µM with NCI-H522 lung and 37.1 µM with SR leukemia.

On to `COCCO`, for which the TGI in the assay with EKVX NSCLC, in the assay on UO-31 renal, in the assay with NCI/ADR-RES ovarian, in the assay on HOP-62 NSCLC, with U251 CNS and with UACC-257 melanoma was > 100 µM in each case. The TGI in the assay on HOP-92 NSCLC and in the assay on NCI-H522 lung was > 100 µM throughout.

As for `COc1cc(/C=C2\C(=O)N(c3cccc(Cl)c3)C(c3ccccc3)S2(=O)=O)cc(OC)c1OC` (stereo unspecified), the TGI in the assay with EKVX NSCLC, in the assay on UO-31 renal, in the assay with NCI/ADR-RES ovarian, in the assay on HOP-62 NSCLC, with U251 CNS and with DU-145 prostate was > 100 µM throughout. In addition, the TGI is > 100 µM in the assay on UACC-257 melanoma, 46.6 µM with MDA-N, > 100 µM with HOP-92 NSCLC and 55.8 µM in the assay on NCI-H522 lung.

In the case of `COc1ccc2nc(-c3ccc(OC(=O)N(C)C)cc3)cn2c1`, the total growth inhibition concentration (TGI) with EKVX NSCLC, in the assay with NCI/ADR-RES ovarian, with HOP-62 NSCLC, with U251 CNS, in the assay on UACC-257 melanoma and in the assay on MDA-N was > 100 µM each time. The TGI in the assay with HOP-92 NSCLC, in the assay with NCI-H522 lung and with SR leukemia was > 100 µM in each case.

On to `CCN(CC)CCN1C(=O)c2cccc3c(-c4ccc5c(c4)ncn5C4CCCCC4)ccc(c23)C1=O`, for which the GI50 is 1.32 µM with EKVX NSCLC; 0.583 µM with UO-31 renal; 1.45 µM in the assay on NCI/ADR-RES ovarian; 1.46 µM in the assay with HOP-62 NSCLC; 1.59 µM in the assay with DU-145 prostate; 2.23 µM in the assay on UACC-257 melanoma. In addition, the GI50 in the assay with HOP-92 NSCLC is 0.372 µM; with SR leukemia, 0.414 µM. Besides, the TGI with EKVX NSCLC amounted to 3.18 µM; in the assay with UO-31 renal, 2.28 µM; in the assay with NCI/ADR-RES ovarian, 4.26 µM; with HOP-62 NSCLC, 3.05 µM; with DU-145 prostate, 3.2 µM; with UACC-257 melanoma, 3.74 µM. The TGI worked out at 1.65 µM in the assay with HOP-92 NSCLC and 2.06 µM with SR leukemia.

In the case of `Nc1[nH]c(=O)nc2sc3c(c12)CCCC3`, the TGI in the assay with EKVX NSCLC, in the assay on UO-31 renal, in the assay with NCI/ADR-RES ovarian, in the assay with HOP-62 NSCLC, in the assay with U251 CNS and with DU-145 prostate was > 100 µM each time. In addition, the TGI with UACC-257 melanoma, in the assay on HOP-92 NSCLC, with NCI-H522 lung and in the assay on SR leukemia was > 100 µM in each case.

Consider `CCCS(=O)(=O)O`, for which the TGI in the assay on EKVX NSCLC, in the assay with UO-31 renal, in the assay on NCI/ADR-RES ovarian, with HOP-62 NSCLC, with U251 CNS and with DU-145 prostate was > 100 µM throughout. The TGI in the assay with UACC-257 melanoma, in the assay on HOP-92 NSCLC, with NCI-H522 lung and in the assay with SR leukemia was > 100 µM throughout.

On to `CN1CCc2c(sc3nc(Nc4ccccc4)n(N)c(=O)c23)C1`, for which the total growth inhibition concentration (TGI) in the assay on EKVX NSCLC, in the assay with UO-31 renal, in the assay with NCI/ADR-RES ovarian, with HOP-62 NSCLC, with DU-145 prostate and with UACC-257 melanoma was > 100 µM each time. Further, the TGI in the assay with MDA-N is > 100 µM.
